The source of these data is ChEMBL document CHEMBL3751734, “Late-stage optimization of a tercyclic class of S1P3-sparing, S1P1 receptor agonists” (Bioorg Med Chem Lett, 2016).

Usually EC50 stands for the concentration giving half of the maximal effect. A lower EC50 goes with higher potency in that assay.

Series [1] in a line: Kinetic solubility of the compound in buffer at pH 7.4 after 16 to 19 hrs by UV absorbance assay. It is filed as physicochemical. To be noted: read-out: Kinetic_solubility.
The target in series [2] is Sphingosine 1-phosphate receptor 1 (Homo sapiens, UniProt P21453). The series is described as follows: Agonist activity at human S1P1 receptor expressed in EDG1-bla U2OS cells incubated for 18 hrs prior to GenBlazer substrate addition by beta-arrestin recruitment assay. It is filed as cell-based.

In brackets after ≈: the same amount, converted by molar mass.

Sequence of Sphingosine 1-phosphate receptor 1 (P21453 whole entry): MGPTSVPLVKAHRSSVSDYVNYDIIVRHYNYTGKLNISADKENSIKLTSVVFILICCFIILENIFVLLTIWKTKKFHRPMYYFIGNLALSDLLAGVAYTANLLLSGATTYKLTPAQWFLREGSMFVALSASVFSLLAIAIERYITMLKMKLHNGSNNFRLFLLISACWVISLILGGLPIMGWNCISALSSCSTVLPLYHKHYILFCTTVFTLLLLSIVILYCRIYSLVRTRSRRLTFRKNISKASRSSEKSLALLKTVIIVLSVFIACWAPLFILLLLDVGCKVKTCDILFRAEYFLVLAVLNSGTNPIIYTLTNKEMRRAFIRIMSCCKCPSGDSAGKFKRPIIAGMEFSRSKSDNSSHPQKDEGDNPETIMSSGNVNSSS

Take `Cc1cc(-c2nc(-c3cnc(OC[C@H]4COC(=O)N4)c(C)c3)no2)cc(CC(C)C)n1`: in series [1], the solubility kinetic is 0.9 µg/mL (≈ 2.13 µM). In addition, a half-maximal response in series [2] (EC50) required 1.4 nM.
Take `Cc1cc(-c2nc(-c3ccc(OC[C@H]4COC(=O)N4)nc3)no2)cc(NC(C)C)n1`: the solubility kinetic in series [1] amounted to 0.3 µg/mL (≈ 0.731 µM). The EC50 in series [2] came to 7.3 nM.
On the same counts, the results for `Cc1cc(-c2nc(-c3cc(F)c(O[C@@H]4CNC(=O)C4)cc3Cl)no2)cc(NC(C)C)n1` are 0.1 µg/mL (≈ 0.224 µM) and 3.5 nM.
`Cc1nc(-c2nnc(-c3cc(F)c(OC[C@H](N)CO)cc3Cl)s2)ccc1OC(C)C`: in series [1], the solubility kinetic was < 0.1 µg/mL. Further, the EC50 in series [2] was 105 nM.
Taken in the same sequence, the figures for `Cc1cc(-c2nnc(-c3cc(F)c(OC[C@H]4OCC[C@@H]4O)cc3Cl)s2)cc(NC(C)C)n1` were 0.9 µg/mL (≈ 1.88 µM) and 250 nM.
Taken in the same sequence, the figures for `Cc1cc(-c2nnc(-c3cc(F)c(OC[C@H]4CNC(=O)CO4)cc3Cl)s2)cc(NC(C)C)n1` were 0.8 µg/mL (≈ 1.63 µM) and 550 nM.
Taken in the same sequence, the figures for `CCOc1ncc(-c2nc(-c3cc(F)c(OC[C@H](N)CO)cc3Cl)no2)cc1Cl` were < 0.1 µg/mL and 62 nM.
Take `CC(C)Oc1ncc(-c2nc(-c3cc(F)c(OC[C@H](N)CO)cc3Cl)no2)cc1C#N`: the solubility kinetic in series [1] was < 0.1 µg/mL. In series [2], this compound had an EC50 of 0.5 nM.
On the same counts, the results for `Cc1cc(-c2nc(-c3ccc(OC[C@H]4COC(=O)N4)c(C)n3)no2)cc(CC(C)C)n1` are > 40 µg/mL and 37 nM.
On the same counts, the results for `Cc1cc(-c2nc(-c3cc(F)c(OC[C@H](N)CO)cc3Cl)no2)cc(OC(C)C)n1` are 0.2 µg/mL (≈ 0.458 µM) and 67 nM.
Taken in the same sequence, the figures for `Cc1cc(-c2nc(-c3cc(F)c(OC[C@H](N)CO)cc3Cl)no2)cc(NC(C)C)n1` were 0.3 µg/mL (≈ 0.688 µM) and 4 nM.
Consider `Cc1cc(-c2nc(-c3cc(F)c(O[C@@H]4CCC(=O)NC4)cc3Cl)no2)cc(NC(C)C)n1`, for which, in series [1], the solubility kinetic was 0.1 µg/mL (≈ 0.217 µM). Besides, the half-maximal effective concentration (EC50) in series [2] turned out to be 0.8 nM.
On the same counts, the results for `Cc1cc(-c2nc(-c3cc(F)c(O[C@H]4COC[C@H]4O)cc3Cl)no2)cc(NC(C)C)n1` (racemic) are 0.1 µg/mL (≈ 0.223 µM) and 0.8 nM.
On the same counts, the results for `Cc1cc(-c2nnc(-c3cc(F)c(OC[C@H](N)CO)cc3Cl)s2)cc(CC(C)C)n1` are 25 µg/mL (≈ 55.4 µM) and 0.8 nM.
On the same counts, the results for `CC(C)Oc1ncc(-c2nc(-c3cc(F)c(OC[C@H](N)CO)cc3Cl)no2)cc1Cl` are < 0.1 µg/mL and 13 nM.
For `Cc1cc(-c2nc(-c3cc(C)c(OC[C@H]4COC(=O)N4)cn3)no2)cc(NC(C)C)n1`, the solubility kinetic in series [1] came out at 0.2 µg/mL (≈ 0.471 µM). For the same compound, the concentration for a half-maximal effect (EC50) in series [2] came out at 18 nM.
As for `Cc1cc(-c2nc(-c3cc(F)c(OC[C@H](N)CO)cc3Cl)no2)cc(CC(C)C)n1`, the EC50 in series [2] came out at 20 nM.
On to `Cc1cc(-c2nc(-c3ccc(OC[C@H]4COC(=O)N4)cc3)no2)cc(NC(C)C)n1`, for which the solubility kinetic in series [1] came to 0.1 µg/mL (≈ 0.244 µM). In addition, the EC50 in series [2] was 2.8 nM.
Taken in the same sequence, the figures for `Cc1cc(-c2nc(-c3cc(C)c(OC[C@H]4COC(=O)N4)cn3)no2)cc(CC(C)C)n1` were 23 µg/mL (≈ 54.3 µM) and 63 nM.
Taken in the same sequence, the figures for `Cc1cc(-c2nc(-c3cnc(OC[C@H]4COC(=O)N4)cn3)no2)cc(CC(C)C)n1` were 27 µg/mL (≈ 65.8 µM) and 200 nM.
On the same counts, the results for `Cc1cc(-c2nnc(-c3cc(F)c(OC[C@H]4CCC(=O)N4)cc3Cl)s2)cc(NC(C)C)n1` are 0.9 µg/mL (≈ 1.89 µM) and 330 nM.
`Cc1cc(-c2nc(-c3cc(F)c(OC[C@H]4CNC(=O)CO4)cc3Cl)no2)cc(NC(C)C)n1`: the solubility kinetic in series [1] was found to be 0.1 µg/mL (≈ 0.21 µM). Also, the EC50 in series [2] was 14 nM.
On the same counts, the results for `Cc1cc(-c2nc(-c3cc(F)c(O[C@H]4CCC(=O)NC4)cc3Cl)no2)cc(NC(C)C)n1` are 0.1 µg/mL (≈ 0.217 µM) and 0.2 nM.
Turning to `Cc1nc(-c2nc(-c3cc(F)c(OC[C@H](N)CO)cc3Cl)no2)ccc1OC(C)C`, the solubility kinetic in series [1] is 8 µg/mL (≈ 18.3 µM). Besides, a half-maximal response in series [2] (EC50) required 49 nM.
